From the Kinase Knowledgebase extract (Sharma et al. 2016) come the findings set out here.

Each structure is given as a SMILES string. Bounds are passed on as bounds.

The term IC50 denotes the midpoint of a concentration-inhibition curve.

Assay [1] has as its target MAPK14 (human) (UniProt Q16539). As to the kind of experiment: Inhibition of MAPK14 Kinase Activity by Fluorescence Anisotropy Kinase Binding Assay. In general terms: Polarisation of emitted light reports the rotation of a fluorescent probe.
Assay [2] has the same target. As to the kind of experiment: Inhibition of MAPK14 Kinase Activity.

Sequence of MAPK14 (human) (Q16539 whole entry, looked up): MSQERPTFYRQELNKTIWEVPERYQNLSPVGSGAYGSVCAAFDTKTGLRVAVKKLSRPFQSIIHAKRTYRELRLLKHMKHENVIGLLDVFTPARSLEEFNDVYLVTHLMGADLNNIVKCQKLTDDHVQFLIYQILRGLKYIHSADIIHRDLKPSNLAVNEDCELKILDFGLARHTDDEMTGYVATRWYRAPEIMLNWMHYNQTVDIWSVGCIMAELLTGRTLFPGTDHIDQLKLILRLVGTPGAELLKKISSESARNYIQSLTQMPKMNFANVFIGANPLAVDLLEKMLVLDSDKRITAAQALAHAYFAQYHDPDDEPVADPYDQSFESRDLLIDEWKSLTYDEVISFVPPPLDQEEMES

`O=c1ccc2c(-c3ccc(F)cc3Cl)nc(NC(CO)CO)nc2n1-c1ccc(F)cc1F` registered a half-maximal inhibitory concentration (IC50) in assay [1] of under 1000 nM.
With `O=c1ccc2c(-c3ccccc3F)nc(NC(CO)CO)nc2n1-c1c(F)cc(F)cc1F`, the values for the IC50 in assay [2] and in assay [1] were under 10000 nM and under 1000 nM, respectively.
In assay [1], `O=c1ccc2c(-c3ccc(F)cc3F)nc(NC(CO)CO)nc2n1-c1cccc(F)c1F` showed a half-inhibitory concentration (IC50) of under 1000 nM.
In the case of `O=c1ccc2c(-c3ccc(F)cc3F)nc(NC(CO)CO)nc2n1-c1c(F)cc(F)cc1F`, the half-inhibitory concentration (IC50) in assay [2] is under 10000 nM; in assay [1] it was under 1000 nM.
The compound `C[C@@H](CO)Nc1nc(-c2ccc(F)cc2F)c2ccc(=O)n(-c3ccc(F)cc3)c2n1` came in with an IC50 in assay [1] of under 1000 nM.
On the same count and under the same terms, under `O=c1ccc2c(-c3ccc(F)cc3)nc(NC(CO)CO)nc2n1-c1c(F)cc(F)cc1F` stands under 1000 nM.
As for `O=c1ccc2c(-c3ccc(F)cc3F)nc(NC(CO)CO)nc2n1-c1ccc(F)cc1F`, the IC50 in assay [2] is under 10000 nM; in assay [1], under 1000 nM.
